Measurements: patent US6004932A, “Use of glucagon as a metabolic conditioner for dairy cows and other ruminants” (Iowa State University Research Foundation, Inc., priority 1998, dated 1999)

Experiments:
Format in all cases: in vivo
[1] = test system: multiparous Holstein cows; assay: Effect of glucagon on liver glycogen content of dairy cows, liver biopsies; settings: NTG and STG groups, FIG. 3
Method: (§1) Glucagon purified from bovine pancreas, was weighed, dissolved in 0.09% NaCl adjusted to pH 10.5, and diluted so that the amount to be infused daily was contained in 480 ml to allow for an infusion rate of 20 ml/h. All glassware that was to be in contact with glucagon was rinsed with a solution of 1.0% bovine serum albumin to prevent adherence of glucagon to glass surfaces.
The four groups of 10 multiparous Holstein cows per group that were used for the main trial were normal controls (NC), normal cows treated with glucagon (NTG), susceptible controls that should be inducible into ketosis (SC), and susceptible cows treated with glucagon (STG). The two groups of 10 normal cows were selected from cows that had body condition scores at calving that ranged from 3.2 to 3.8. The two groups of 10 susceptible cows were selected from obese cows that have been fed at 2 times NRC requirements for energy during late lactation and throughout the dry period so they calved at a body condition score of 4.0 to 4.5. […]
(§2) A liver biopsy was taken at 7 days postpartum and analyzed immediately for triacylglycerols and glycogen. […]
(§3) On d 14 postpartum, the SC and the STG groups began the FRBD (feed restriction and 1,3-butanediol in the diet) protocol in which feed intake was restricted to 80% of the average intake for the previous 2 days and 1,3-butanediol (BD) was added, a precursor of ketone bodies, to the ration in increasing quantities either until the cow became ketotic or until 1.4 kg of BD was offered daily. […]
Glycogen and triacylglycerol concentrations of liver samples were determined as described by Mills, S. E. et al., "Characterization of metabolic changes during a protocol for inducing lactation ketosis in dairy cows", J. Dairy Sci. 69:352 (1986a). Total lipid content was measured as described by Drackley, J. K. et al., "Metabolic changes in blood and liver of dairy cows during feed restriction or administration of 1,3-butanediol", J. Dairy Sci., 74:4254 (1991). […]

[2] = test system: multiparous Holstein cows; assay: Effect of glucagon on liver triacylglycerol (lipid) levels of dairy cows, liver biopsies
Method: as §1
The four groups of 10 multiparous Holstein cows per group that were used for the main trial were normal controls (NC), normal cows treated with glucagon (NTG), susceptible controls that should be inducible into ketosis (SC), and susceptible cows treated with glucagon (STG). […]
as §2, §3
Glycogen and triacylglycerol concentrations of liver samples were determined as described by Mills, S. E. et al., "Characterization of metabolic changes during a protocol for inducing lactation ketosis in dairy cows", J. Dairy Sci. 69:352 (1986a). […]

[3] = test system: early lactation dairy cows; assay: Preliminary data on glucagon doses above 10 mg/day in early lactation dairy cows; settings: doses of greater than 10 mg/day; inventors' preliminary data
dairy cows = assay: Toxicity observation during glucagon treatment of dairy cows; settings: treated dairy cows, 10 mg/day
Method: On d 14 postpartum, the SC and the STG groups began the FRBD (feed restriction and 1,3-butanediol in the diet) protocol in which feed intake was restricted to 80% of the average intake for the previous 2 days and 1,3-butanediol (BD) was added, a precursor of ketone bodies, to the ration in increasing quantities either until the cow became ketotic or until 1.4 kg of BD was offered daily. The STG group at 21 days postpartum began to receive a continuous intravenous infusion of 10 mg of glucagon daily, which continued for 14 days. The SC group were infused with saline as a vehicle control. The NC and the NTG groups continued to receive feed for ad libitum intake, but the NTG group received an infusion of glucagon from d 21 to 35 postpartum and the NC group was infused with vehicle control. (The NTG group gave information on how normal early lactation cows respond to 14-day intravenous infusions of glucagon).

Substance: glucagon
- liver glycogen content after d 38, before the 42-d biopsy ([1]; after termination of infusion): dropped dramatically
- liver glycogen concentration from the 20-d to the 23-d biopsy sample ([1]; after infusions began at d 21): decreased
- liver glycogen concentration from d 23 up to the d 38 biopsy ([1]; d 38 is 3 d after infusions stopped): increased at a parallel rate
- liver triacylglycerol, covariate adjusted to average d-7 value, normal cows ([2]; NTG vs NC, FIG. 2): only a slight difference between the NC and the NTG groups
- change in concentration of lipid in livers of normal cows ([2]; normal cows (NTG vs NC), 10 mg/d intravenous infusion d 21-35 postpartum, FIG. 1): no major decrease
- incidence of fatty liver at high dose [3]: may actually increase the incidence of fatty liver
- glucagon toxicity in the animals (dairy cows): without any indication of glucagon toxicity
